From patent publication US20260241039A1, “FLUORESCENT PROBES FOR MAGL” (Hoffmann-La Roche Inc., priority 2022, published 2026)

Target: T1, hMAGL (Homo sapiens, UniProt Q99685)
T1 sequence (Q99685 1-303): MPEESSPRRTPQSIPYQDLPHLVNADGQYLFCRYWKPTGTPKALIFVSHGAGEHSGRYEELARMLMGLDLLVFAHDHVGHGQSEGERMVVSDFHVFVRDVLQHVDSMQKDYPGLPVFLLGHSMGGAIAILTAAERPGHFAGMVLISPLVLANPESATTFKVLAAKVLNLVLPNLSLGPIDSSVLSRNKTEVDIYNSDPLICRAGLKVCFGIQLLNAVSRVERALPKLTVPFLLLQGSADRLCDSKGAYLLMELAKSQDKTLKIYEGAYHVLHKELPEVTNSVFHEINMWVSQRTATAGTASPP
Assay: 2-AG assay: MAGL inhibitory activity, hydrolysis of 2-arachidonoylglycerol to arachidonic acid followed by mass spectrometry
Assay type: biochemical
Conditions: 15 min pre-incubation at RT, 30 min reaction at RT, 8 μM 2-arachidonoylglycerol
Procedure: Compounds were profiled for MAGL inhibitory activity by determining the enzymatic activity by following the hydrolysis of the natural substrate 2-arachidonoylglycerol (2-AG) resulting in arachidonic acid, which can be followed by mass spectrometry. This assay is hereinafter abbreviated “2-AG assay”.
The 2-AG assay was carried out in 384 well assay plates (PP, Greiner Cat #784201) in a total volume of 20 μL. Compound dilutions were made in 100% DMSO (VWR Chemicals 23500.297) in a polypropylene plate in 3-fold dilution steps to give a final concentration range in the assay from 12.5 μM to […]. 0.25 μL compound dilutions (100% DMSO) were added to 9 μL MAGL in assay buffer (50 mM TRIS (GIBCO, 15567-027), 1 mM EDTA (Fluka, 03690-100 mL), 0.01% (v/v) Tween. After shaking, the plate was incubated for 15 min at RT. To start the reaction, 10 μL 2-arachidonoylglycerol in assay buffer was added. The final concentrations in the assay was […] and 8 μM 2-arachidonoylglyerol. After shaking and 30 min incubation at RT, the reaction was quenched by the addition of 40 μL of ACN containing 4 μM of d8-arachidonic acid. The amount of arachidonic acid was traced by an online SPE system (Agilent Rapidfire) coupled to a triple quadrupole mass spectrometer (Agilent 6460). A C18 SPE cartridge (G9205A) was used in an ACN/water liquid setup. The mass spectrometer was operated in negative electrospray mode following the mass transitions 303.1→259.1 for arachidonic acid and 311.1→267.0 for d8-arachidonic acid. The activity of the compounds was calculated based on the ratio of intensities [arachidonic acid/d8-arachidonic acid].

Molecule	IC50
2-(2-((5,5-difluoro-5H-4λ^4,5λ^4-dipyrrolo[1,2-c:2′,1′-f][1,3,2]diazaborinin-10-yl)oxy)-7-azaspiro[3.5]nonane-7-carbonyl)-7-oxa-2,5-diazaspiro[3.4]octan-6-one [Example 13]	3.99 nM
2-(6-((5,5-difluoro-5H-4λ^4,5λ^4-dipyrrolo[1,2-c:2′,1′-f][1,3,2]diazaborinin-10-yl)methyl)-2-azaspiro[3.3]heptane-2-carbonyl)-7-oxa-2,5-diazaspiro[3.4]octan-6-one [Example 23]	1.26 nM
2-(6-((5,5-difluoro-5H-4λ^4,5λ^4-dipyrrolo[1,2-c:2′,1′-f][1,3,2]diazaborinin-10-yl)methylene)-2-azaspiro[3.3]heptane-2-carbonyl)-7-oxa-2,5-diazaspiro[3.4]octan-6-one [Example 22]	12.6 nM
2-(6-((5,5-difluoro-5H-4λ^4,5λ^4-dipyrrolo[1,2-c:2′,1′-f][1,3,2]diazaborinin-10-yl)oxy)-2-azaspiro[3.3]heptane-2-carbonyl)-7-oxa-2,5-diazaspiro[3.4]octan-6-one [Example 11]	1.76 nM
2-(7-((5,5-difluoro-5H-4λ^4,5λ^4-dipyrrolo[1,2-c:2′,1′-f][1,3,2]diazaborinin-10-yl)methyl)-2-azaspiro[3.5]nonane-2-carbonyl)-7-oxa-2,5-diazaspiro[3.4]octan-6-one [Example 21]	0.69 nM
2-(7-((5,5-difluoro-5H-4λ^4,5λ^4-dipyrrolo[1,2-c:2′,1′-f][1,3,2]diazaborinin-10-yl)methylene)-2-azaspiro[3.5]nonane-2-carbonyl)-7-oxa-2,5-diazaspiro[3.4]octan-6-one [Example 20]	0.67 nM
6-(6-((5,5-difluoro-5H-4λ^4,5λ^4-dipyrrolo[1,2-c:2′,1′-f][1,3,2]diazaborinin-10-yl)methyl)-2-azaspiro[3.3]heptane-2-carbonyl)-2H-benzo[b][1,4]oxazin-3(4H)-one [Example 24]	7.5 nM
O=C1CO[C@H]2CCN(C(=O)N3CC4(CC(Oc5ccc6ccc(=O)oc6c5)C4)C3)C[C@H]2N1 [Example 1]	255 nM
O=C1CO[C@H]2CCN(C(=O)N3CC(COc4ccc5ccc(=O)oc5c4)C3)C[C@H]2N1 [Example 2, (4aR,8aS)-6-(3-(((2-oxo-2H-chromen-7-yl)oxy)methyl)azetidine-1-carbonyl)hexahydro-2H-pyrido[4,3-b][1,4]oxazin-3(4H)-one]	487 nM
O=C1CO[C@H]2CCN(C(=O)N3CC(COc4cc(=O)oc5ccccc45)C3)C[C@H]2N1 [Example 3, (4aR,8aS)-6-(3-(((2-oxo-2H-chromen-4-yl)oxy)methyl)azetidine-1-carbonyl)hexahydro-2H-pyrido[4,3-b][1,4]oxazin-3(4H)-one]	667 nM
O=C1CO[C@H]2CCN(C(=O)N3CC4(CC(Oc5cc(=O)oc6ccccc56)C4)C3)C[C@H]2N1 [Example 4, (4aR,8aS)-6-(6-((2-oxo-2H-chromen-4-yl)oxy)-2-azaspiro[3.3]heptane-2-carbonyl)hexahydro-2H-pyrido[4,3-b][1,4]oxazin-3(4H)-one]	298 nM
COc1ccc2c(CN3CCN(C(=O)N4CC[C@@H]5OCC(=O)N[C@@H]5C4)CC3)cc(=O)oc2c1 [Example 5, (4aR,8aS)-6-(4-((7-methoxy-2-oxo-2H-chromen-4-yl)methyl)piperazine-1-carbonyl)hexahydro-2H-pyrido[4,3-b][1,4]oxazin-3(4H)-one]	3310 nM
O=C1CO[C@H]2CCN(C(=O)N3CCC(Nc4ccc([N+](=O)[O-])c5nonc45)CC3)C[C@H]2N1 [Example 6, (4aR,8aS)-6-(4-((7-nitrobenzo[c][1,2,5]oxadiazol-4-yl)amino)piperidine-1-carbonyl)hexahydro-2H-pyrido[4,3-b][1,4]oxazin-3(4H)-one]	3810 nM
O=C1CO[C@H]2CCN(C(=O)N3CC(COC4=C5C=CC=[N+]5[B-](F)(F)n5cccc54)C3)C[C@H]2N1 [Example 7, (4aR,8aS)-6-(3-(((5,5-difluoro-5H-4λ^4,5λ^4-dipyrrolo[1,2-c:2,1′-f][1,3,2]diazaborinin-10-yl)oxy)methyl)azetidine-1-carbonyl)hexahydro-2H-pyrido[4,3-b][1,4]oxazin-3(4H)-one]	2590 nM
O=C1COC2CCN(C(=O)N3C[C@@H]4[C@@H](COC5=C6C=CC=[N+]6[B-](F)(F)n6cccc65)[C@@H]4C3)CC2N1 (stereo partly drawn) [Example 14, (4aR,8aS)-6-((1R,5S,6R)-6-(((5,5-difluoro-5H-4λ^4,5λ^4-dipyrrolo[1,2-c:2′,1′-f][1,3,2]diazaborinin-10-yl)oxy)methyl)-3-azabicyclo[3.1.0]hexane-3-carbonyl)hexahydro-2H-pyrido[4,3-b][1,4]oxazin-3(4H)-one]	500 nM
O=C1CO[C@H]2CCN(C(=O)N3CC4(CC(=CC5=C6C=CC=[N+]6[B-](F)(F)n6cccc65)C4)C3)C[C@H]2N1 [Example 15, (4aR,8aS)-6-(6-((5,5-difluoro-5H-4λ^4, 5λ^4-dipyrrolo[1,2-c:2,1′-f][1,3,2]diazaborinin-10-yl)methylene)-2-azaspiro[3.3]heptane-2-carbonyl)hexahydro-2H-pyrido[4,3-b][1,4]oxazin-3(4H)-one]	43.3 nM
O=C1CO[C@H]2CCN(C(=O)N3CC4(CC(CC5=C6C=CC=[N+]6[B-](F)(F)n6cccc65)C4)C3)C[C@H]2N1 [Example 16, (4aR,8aS)-6-(6-((5,5-difluoro-5H-4λ^4,5λ^4-dipyrrolo[1,2-c:2,1′-f][1,3,2]diazaborinin-10-yl)methyl)-2-azaspiro[3.3]heptane-2-carbonyl)hexahydro-2H-pyrido[4,3-b][1,4]oxazin-3(4H)-one]	0.77 nM
NC(=O)[C@H]1CCN(C(=O)N2CC3(CC(CC4=C5C=CC=[N+]5[B-](F)(F)n5cccc54)C3)C2)C1 [Example 27, (S)-1-(6-((5,5-difluoro-5H-4λ^4,5λ^4-dipyrrolo[1,2-c:2,1′-f][1,3,2]diazaborinin-10-yl)methyl)-2-azaspiro[3.3]heptane-2-carbonyl)pyrrolidine-3-carboxamide]	1.98 nM
O=C(N1CC2(CC(CC3=C4C=CC=[N+]4[B-](F)(F)n4c3ccc4-c3ccc[nH]3)C2)C1)N1CC2(CC(n3cnc(C4CC4)n3)C2)C1 [Example 31, (6-(3-cyclopropyl-1H-1,2,4-triazol-1-yl)-2-azaspiro[3.3]heptan-2-yl)(6-((5,5-difluoro-3-(1H-pyrrol-2-yl)-5H-5λ^4,6λ^4-dipyrrolo[1,2-c:2′,1′-f][1,3,2]diazaborinin-10-yl)methyl)-2-azaspiro[3.3]heptan-2-yl)methanone]	0.59 nM
(4aR,8aS)-6-(2-((5,5-difluoro-5H-4λ^4, 5λ^4-dipyrrolo[1,2-c:2,1′-f][1,3,2]diazaborinin-10-yl)oxy)-7-azaspiro[3.5]nonane-7-carbonyl)hexahydro-2H-pyrido[4,3-b][1,4]oxazin-3(4H)-one [Example 12]	45 nM
(4aR,8aS)-6-(4-((5,5-difluoro-5H-4λ^4, 5λ^4-dipyrrolo[1,2-c:2,1′-f][1,3,2]diazaborinin-O-yl)methylene)piperidine-1-carbonyl)hexahydro-2H-pyrido[4,3-b][1,4]oxazin-3(4H)-one [Example 17]	1680 nM
(4aR,8aS)-6-(4-((5,5-difluoro-5H-4λ^4, 5λ^4-dipyrrolo[1,2-c:2′,1′-f][1,3,2]diazaborinin-10-yl)oxy)piperidine-1-carbonyl)hexahydro-2H-pyrido[4,3-b][1,4]oxazin-3(4H)-one [Example 9]	6320 nM
